Activity calls are given as the source filed them. How the calls were made is not given here.
These compounds were tested against Serine/threonine-protein kinase mTOR (Homo sapiens) (UniProt P42345) (assay: mTOR FRB domain ligand binding – biophysical, NMR (AID 1648)). Details: NMR binding to FRB domain, chemical shift.
Serine/threonine-protein kinase mTOR (Homo sapiens), sequence (P42345 2015-2114): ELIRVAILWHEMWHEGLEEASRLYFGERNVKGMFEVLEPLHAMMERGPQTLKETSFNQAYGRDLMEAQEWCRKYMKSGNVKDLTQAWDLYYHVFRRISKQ
With `Cc1ccc(S(=O)(=O)CCc2ccccn2)cc1` the Kd was > 4 mM (inactive). In the case of `COc1nc(C#N)c(N2CCOCC2)o1`, the Kd is reported as > 4 mM (inactive). With `CNC(=O)Nc1cccc(C(F)(F)F)c1` the Kd was > 4 mM (inactive). `Cc1ncc(C[n+]2csc3ccccc32)c(N)n1` was tested, and the Kd was > 4 mM (inactive). With `CC(C)NC(=O)Cc1c(O)c2ccccc2[nH]c1=O` the Kd was > 4 mM (inactive). For `COc1cc2cc[n+]3cc4c(OC)c(OC)ccc4cc3c2cc1OC`, the Kd was > 4 mM (inactive). In the case of `COc1cc2nc(-c3cccs3)oc(=O)c2cc1OC`, the Kd is reported as > 4 mM (inactive). With `CC(C)NS(=O)(=O)c1ccc(N)cc1` the Kd was > 4 mM (inactive). For `NC(=O)CN=Cc1c(O)[nH]c2ccccc12`, the Kd was > 4 mM (inactive). With `CC(=O)Nc1ccc(C(=O)N2CCOCC2)cc1Cl` the Kd was > 4 mM (inactive). In the case of `CC(C)c1ccc2c(c1)CCC1[C@](C)(CN)CCC[C@]21C` (stereo partly specified), the Kd is reported as > 4 mM (inactive). With `CC1(C)Cc2nc3n[nH]c(N)c3cc2CO1` the Kd was > 4 mM (inactive). `COc1ccc(/C=C2/C(=O)N=C(N)N2C)cc1OC` was tested, and the Kd was > 4 mM (inactive). For `CCn1nccc1C(=O)Nc1ccc(Cl)cc1Cl`, the Kd was > 4 mM (inactive). `Cc1cc(=O)cc(C)n1NC(N)=S` was tested, and the Kd was > 4 mM (inactive). For `CC(C)C1COc2cc3oc(=O)ccc3cc2O1` (stereo unspecified), the Kd was > 4 mM (inactive). In the case of `c1ccc2c(c1)ncn2CCn1cnc2ccccc21`, the Kd is reported as > 4 mM (inactive). With `CCCCCC/C=C\CCCCCCCc1cccc(O)c1C(=O)O` the Kd was > 4 mM (inactive). `O=C(O)c1[nH]nc2c1COc1ccccc1-2` was tested, and the Kd was > 4 mM (inactive). In the case of `O=C1CC(=O)N2N=C(c3ccccc3)SC2=N1`, the Kd is reported as > 4 mM (inactive). For `O=C1CC(=O)N(c2ccccc2)c2ccccc21`, the Kd was > 4 mM (inactive). For `O=c1c2ccccc2nc(-c2ccco2)n1-c1nccs1`, the Kd was > 4 mM (inactive). `Cc1ccc(/C=C2/NC(=S)NC2=O)s1` was tested, and the Kd was > 4 mM (inactive). With `O=C1COc2ccc(C(=O)c3ccccc3)cc2CN1` the Kd was > 4 mM (inactive). With `CN1CCN(C(=S)NC(=O)c2ccn(C)n2)CC1` the Kd was > 4 mM (inactive). `CS(=O)(=O)Nc1cc2c3c(c1)CCN3C(=O)CC2` was tested, and the Kd was > 4 mM (inactive). With `CSc1ccccc1C(=O)N1CCOCC1` the Kd was > 4 mM (inactive). For `CC(=O)Nc1ccccc1-c1ccccc1NC(C)=O`, the Kd was > 4 mM (inactive). For `c1ccc(-c2nsc(N3CCCNCC3)n2)cc1`, the Kd was > 4 mM (inactive). For `O=C(O)C1CSC(c2cccnc2)N1` (stereo unspecified), the Kd was > 4 mM (inactive). `O=C(Nn1cnnc1)c1csc2c1CCCC2` was tested, and the Kd was > 4 mM (inactive). For `Cn1c(O)c(/C=C2\C=CC=N2)c(=O)[nH]c1=O`, the Kd was > 4 mM (inactive). `COc1ccc(-c2coc3cc(O)ccc3c2=O)cc1` was tested, and the Kd was > 4 mM (inactive). In the case of `NNc1ncnc2sccc12`, the Kd is reported as > 4 mM (inactive). In the case of `O=C1CSC(=Nc2ccccc2)N1`, the Kd is reported as > 4 mM (inactive). In the case of `CCNC(=S)NS(=O)(=O)c1ccccc1`, the Kd is reported as > 4 mM (inactive). In the case of `Nc1ccn(C2O[C@H](CO)[C@@H](O)[C@H]2O)c(=O)n1` (stereo partly specified), the Kd is reported as > 4 mM (inactive). With `CCN1CC2(C)CC[C@H](OC)[C@]34C2[C@H](O)C2(OCO[C@@]25C[C@H](OC)[C@H]2C[C@]3(O)C5[C@H]2O)C14` the Kd was > 4 mM (inactive). `O=C1CCC(=O)N1c1ccc(F)cc1` was tested, and the Kd was > 4 mM (inactive). `Cc1nc2nc(Cc3ccccc3)nn2c(C)c1Cl` was tested, and the Kd was > 4 mM (inactive). In the case of `CNc1nnc(Cc2csc(N)n2)s1`, the Kd is reported as > 4 mM (inactive). With `CN(C)C1CCS(=O)(=O)C1` (stereo unspecified) the Kd was > 4 mM (inactive). In the case of `CC(=O)NC(C)(C)C1CC=C(C)/C(=N\O)C1` (stereo unspecified), the Kd is reported as > 4 mM (inactive). In the case of `Cc1cc(/C=N/O)nc(=O)[nH]1`, the Kd is reported as > 4 mM (inactive). With `Cn1c(SCC(N)=O)nnc1-c1c[nH]c2ccccc12` the Kd was > 4 mM (inactive). With `NC(=O)c1ccccc1N=Cc1ccco1` the Kd was > 4 mM (inactive). With `Oc1ccc2c(c1)OCC1(O)Cc3cc(O)c(O)cc3C21` (stereo unspecified) the Kd was > 4 mM (inactive). With `O=C(C1CCC(C(=O)N2CCCC2)CC1)N1CCCC1` (stereo unspecified) the Kd was > 4 mM (inactive). `COc1ccc(C)cc1S(N)(=O)=O` was tested, and the Kd was > 4 mM (inactive). `O=C1c2ccccc2C(=O)N1OCc1ccccc1` was tested, and the Kd was > 4 mM (inactive). With `CC1CCN(C(=O)c2ccc3c(c2)OCCO3)CC1` the Kd was > 4 mM (inactive). For `Nc1nnc(COc2cccc(C(F)(F)F)c2)s1`, the Kd was > 4 mM (inactive). In the case of `COc1c2ccoc2cc2oc(C)cc(=O)c12`, the Kd is reported as > 4 mM (inactive). With `COC(=O)c1cc(C)on1` the Kd was > 4 mM (inactive). `OCC1CCCC1O` (stereo unspecified) was tested, and the Kd was > 4 mM (inactive). For `O=C(O)c1ccc(-n2ccnc2)cc1`, the Kd was > 4 mM (inactive). For `Cc1ccccc1N1CCN(C(=O)C2CCCCC2)CC1`, the Kd was > 4 mM (inactive). In the case of `O=C(Nc1ccc(Cl)cc1)N1CCCC1`, the Kd is reported as > 4 mM (inactive). With `C/C1=C/CC(C)(C)/C=C/C/C(C)=C/CC1` the Kd was > 4 mM (inactive). For `CC(=O)N1CCN(C2CCSC2)CC1` (stereo unspecified), the Kd was > 4 mM (inactive). For `Cc1ccc(C(=O)N2CCC(C(=O)O)CC2)cc1`, the Kd was > 4 mM (inactive). With `Nc1cccc2nonc12` the Kd was > 4 mM (inactive). With `OCC(O)Cc1ccc2c(c1)OCO2` (stereo unspecified) the Kd was > 4 mM (inactive). With `Cc1cc(C)n2nc(C(=O)NCc3ccco3)nc2n1` the Kd was > 4 mM (inactive). For `Cc1nc2ccc(C(=O)O)cc2[nH]1`, the Kd was > 4 mM (inactive). For `COc1ccc(-c2c(C)n([O-])c(C)c(C)[n+]2=O)cc1`, the Kd was > 4 mM (inactive). With `Cc1cc(=O)c2ccccc2n1CC(N)=O` the Kd was > 4 mM (inactive). For `C=CC1=C(C)/C(=C/c2[nH]c(Cc3[nH]c(/C=C4\NC(=O)C(C)=C4C=C)c(C)c3CCC(=O)O)c(CCC(=O)O)c2C)NC1=O`, the Kd was > 4 mM (inactive). For `Nc1c(/C=C2\C=Nc3ccccc32)c(=O)nc2scnn12`, the Kd was > 4 mM (inactive). For `O=C(O)C1CSC(c2ccco2)N1` (stereo unspecified), the Kd was > 4 mM (inactive). With `CC1(C)NC(=O)N(CCOc2ccc3c(c2)CCC3)C1=O` the Kd was > 4 mM (inactive). In the case of `CC(=O)CC1(O)C(=O)Nc2ccc(Br)cc21` (stereo unspecified), the Kd is reported as > 4 mM (inactive). With `COc1cc(-c2nnc(NC(C)=O)o2)cc(OC)c1OC` the Kd was > 4 mM (inactive). For `NC(=O)C1CCN(c2ccc(Cl)nn2)CC1`, the Kd was > 4 mM (inactive). `S=c1[nH]nc(-c2cccnc2)n1Cc1ccccc1` was tested, and the Kd was > 4 mM (inactive). For `O=C1CCCc2c1nc(-c1ccccc1)n2O`, the Kd was > 4 mM (inactive). `NC(=O)CSc1nnc(-c2cccnc2)o1` was tested, and the Kd was > 4 mM (inactive). `Cc1occc(=O)c1O` was tested, and the Kd was > 4 mM (inactive). In the case of `c1cnc(N2CCNCC2)nc1`, the Kd is reported as > 4 mM (inactive). For `CN1CCC(NC(=O)c2cccnc2)CC1`, the Kd was > 4 mM (inactive). With `Cc1occc1C(=O)Nc1ccc2c(c1)OCO2` the Kd was > 4 mM (inactive). For `O=c1cc(CO)oc(CN2CCCCC2)c1O`, the Kd was > 4 mM (inactive). In the case of `NC1=NC(=O)/C(=C/c2cccc([N+](=O)[O-])c2)S1`, the Kd is reported as > 4 mM (inactive). For `COc1ccc([C@@H]2CC(=O)c3c(O)cc(O)cc3O2)cc1O`, the Kd was > 4 mM (inactive). For `NC(=O)C1CCN(CN2C(=O)c3ccccc3C2=O)CC1`, the Kd was > 4 mM (inactive). In the case of `NS(=O)(=O)c1ccc(N=C2NC(=O)CS2)cc1`, the Kd is reported as > 4 mM (inactive). For `CCSc1nnc(-c2ccccc2N)c(=O)[nH]1`, the Kd was > 4 mM (inactive). `CC(=O)NC(=S)Nc1ccccc1N1CCOCC1` was tested, and the Kd was > 4 mM (inactive). With `CC(=O)OC1CCC23CC1(C)CCC2C(C)(C)CC3OC(C)=O` (stereo unspecified) the Kd was > 4 mM (inactive). With `CSc1nsc(SCc2cnc(C)nc2N)n1` the Kd was > 4 mM (inactive). With `Cc1cn2c(-c3cccnc3)nnc2s1` the Kd was > 4 mM (inactive). For `O=C(Nn1cnnc1)c1ccccc1-c1ccccc1`, the Kd was > 4 mM (inactive). In the case of `O=C(O)Cc1c[nH]c2ccccc12`, the Kd is reported as > 4 mM (inactive). In the case of `CC(=O)c1cccc(NC(=O)NN2CCOCC2)c1`, the Kd is reported as > 4 mM (inactive). With `O=C1CSC(=Nc2cccc(C(F)(F)F)c2)N1` the Kd was > 4 mM (inactive). For `NC(=O)Cn1cnc(-c2ccc(F)cc2)c1`, the Kd was > 4 mM (inactive). For `COc1ccc(/C=C2/N=C(N)SC2=O)cc1`, the Kd was > 4 mM (inactive). `O=C(Nn1cnnc1)c1csc2ccccc12` was tested, and the Kd was > 4 mM (inactive). `COc1cc2c(cc1-c1coc3c4c(c(OC)cc3c1=O)OC(C)(C)C=C4)OCO2` was tested, and the Kd was > 4 mM (inactive). In the case of `C=C[C@@](C)(O)CCC1C(=C)C[C@H](OC(C)=O)C2C(C)(C)CCCC12C` (stereo partly specified), the Kd is reported as > 4 mM (inactive). For `CC(C)c1c(O)ccc2c1CCC1[C@@](C)(C=O)CCC[C@]21C` (stereo partly specified), the Kd was > 4 mM (inactive). With `Nc1nncn1C(=O)c1ccccc1Cl` the Kd was > 4 mM (inactive). In the case of `CCc1c(C)[nH]c(=S)c(C(N)=O)c1C`, the Kd is reported as > 4 mM (inactive). `CC(=O)NC1C(=O)Nc2c(C)cc(C)cc21` (stereo unspecified) was tested, and the Kd was > 4 mM (inactive). `Cc1occc1C(=O)Nc1nnc(-c2ccncc2)s1` was tested, and the Kd was > 4 mM (inactive). For `O=C(O)CCC(=O)c1cccc2ccccc12`, the Kd was > 4 mM (inactive). `O=C(NCCCO)c1ccncc1` was tested, and the Kd was > 4 mM (inactive). In the case of `CC(=O)NC1=C(N(C)C)C(=O)c2ccccc2C1=O`, the Kd is reported as > 4 mM (inactive). In the case of `CCN1CCC(NC2CCC(O)CC2)CC1` (stereo unspecified), the Kd is reported as > 4 mM (inactive). For `NC(=O)NC1C=CS(=O)(=O)C1` (stereo unspecified), the Kd was > 4 mM (inactive). In the case of `CCN1CCN(c2ncnc3c2nnn3C)CC1`, the Kd is reported as > 4 mM (inactive). With `O=C(NCCCSc1ncccn1)Nc1ncccn1` the Kd was > 4 mM (inactive). `CNS(=O)(=O)c1cc(OC)ccc1OC` was tested, and the Kd was > 4 mM (inactive). With `O=C(CO)N/N=C/c1ccccc1F` the Kd was > 4 mM (inactive). With `C=C(C)[C@H]1Cc2c(ccc3c2O[C@@H]2COc4cc(OC)c(OC)cc4[C@@H]2C3=O)O1` the Kd was > 4 mM (inactive). In the case of `Cc1ccc2cccc(OC(=O)N3CCCC3)c2n1`, the Kd is reported as > 4 mM (inactive). With `CC[C@@H]1[C@@H](O)N2C3C[C@H]1C1C(O)[C@]4(C[C@@H]12)c1ccccc1N(C)[C@@H]34` (stereo partly specified) the Kd was > 4 mM (inactive). `OC12CC3CC(CC(C3)C1)C2` was tested, and the Kd was > 4 mM (inactive). `CC(=O)OC1CCC2(C)C3CC(=O)C4(C)C(CC5OC6(CCC(C)CO6)[C@@H](C)C54)C3CC[C@H]2C1` (stereo partly specified) was tested, and the Kd was > 4 mM (inactive). In the case of `Cc1ccc(C2NS(=O)(=O)N=C2N)cc1` (stereo unspecified), the Kd is reported as > 4 mM (inactive). In the case of `NCc1cccc2c1OCCO2`, the Kd is reported as > 4 mM (inactive).

Source: PubChem BioAssay AID1648 (Sanford-Burnham Center for Chemical Genomics, 2009)
